One experiment concerns the target SCD5 (Homo sapiens (Human), UniProt Q86SK9). The experiment in a line: Growth inhibition of yeast strain expressing human SCD5 as the sole desaturase. Format: cell-based.
For the next experiment, the target named is SCD1 (Homo sapiens (Human), UniProt O00767). Description: Growth inhibition of yeast strain expressing human SCD1 as the sole desaturase. Format: cell-based.
[1] abbreviates: ole1Δ yeast with human SCD5 plasmid, OD600 growth read at 40 h, top concentration 33.3 μM per method.
The mark [2] stands for this setting: ole1Δ yeast with human SCD1 plasmid, OD600 growth read at 40 h, top concentration 33.3 μM per method.

What is called pIC50 is the negative decadic logarithm of the IC50, by convention in mol/L. Lower therefore signals a large IC50.

pIC50: −log10 of the molar value. Read-outs that look alike come from different tables or passages of the source.

Sequence of SCD1 (O00767 whole entry): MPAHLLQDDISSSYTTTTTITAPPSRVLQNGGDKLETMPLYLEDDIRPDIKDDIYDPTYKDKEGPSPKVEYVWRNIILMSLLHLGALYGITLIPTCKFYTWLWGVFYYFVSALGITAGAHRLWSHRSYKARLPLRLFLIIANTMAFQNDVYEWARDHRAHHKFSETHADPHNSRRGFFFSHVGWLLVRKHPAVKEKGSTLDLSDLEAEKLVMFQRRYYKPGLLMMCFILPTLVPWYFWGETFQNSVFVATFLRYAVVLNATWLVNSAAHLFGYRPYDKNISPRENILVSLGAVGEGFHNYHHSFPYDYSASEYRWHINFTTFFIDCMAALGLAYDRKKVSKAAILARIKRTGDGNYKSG
Sequence of SCD5 (Q86SK9 whole entry): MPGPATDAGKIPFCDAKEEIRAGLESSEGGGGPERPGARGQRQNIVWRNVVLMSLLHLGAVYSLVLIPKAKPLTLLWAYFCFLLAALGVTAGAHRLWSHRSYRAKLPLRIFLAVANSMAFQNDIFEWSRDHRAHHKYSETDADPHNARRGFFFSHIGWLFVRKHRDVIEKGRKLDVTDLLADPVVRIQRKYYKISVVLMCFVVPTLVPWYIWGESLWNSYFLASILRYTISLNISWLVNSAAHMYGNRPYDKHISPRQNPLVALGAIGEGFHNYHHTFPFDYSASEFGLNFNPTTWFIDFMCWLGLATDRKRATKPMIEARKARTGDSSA

In the case of `Cn1nc(NC(=O)N2CCC(Oc3cccc(F)c3Cl)CC2)ccc1=O` [Compound 78, 4-(2-Chloro-3-fluorophenoxy)-N-(1-methyl-6-oxo-1,6-dihydropyridazin-3-yl)piperidine-1-carboxamide], the negative logarithm of the IC50 (pIC50) against SCD5 (setting [1]) was 8.00; at SCD1 (setting [2]) it was 6.77.
For “6-(3-(4-(3,5-difluorobenzyl)piperidin-1-yl)-1,2,4-oxadiazol-5-yl)-2-methylpyridazin-3(2H)-one [Compound 115]”, in that order: 8.00 and 6.35.
Turning to `Cn1nc(NC(=O)N2CCC(Cc3cc(F)cc(F)c3)CC2)ccc1=O` [Compound 51, 4-(3,5-difluorobenzyl)-N-(1-methyl-6-oxo-1,6-dihydropyridazin-3-yl)piperidine-1-carboxamide], the pIC50 against SCD5 is 7.22; at SCD1, 6.17.
As to `Cn1cc(NC(=O)N2CCC(Cc3cc(F)cc(F)c3)CC2)ccc1=O` [Compound 9], the negative logarithm of the IC50 (pIC50) is 5.37 at SCD5 (setting [1]) and 4.84 at SCD1 (setting [2]).
For `Cn1nc(NC(=O)C2CCN(Cc3cccc(Cl)c3)CC2)ccc1=O` [Compound 136, 1-(3-chlorobenzyl)-N-(1-methyl-6-oxo-1,6-dihydropyridazin-3-yl)piperidine-4-carboxamide], in that order: below 4.35 and below 4.35.
The matching figures for `Cn1nc(NC(=O)N2CCC(Oc3cccc(Cl)c3F)CC2)ccc1=O` [Compound 77, 4-(3-chloro-2-fluorophenoxy)-N-(1-methyl-6-oxo-1,6-dihydropyridazin-3-yl)piperidine-1-carboxamide]: 6.13 and 6.04.

These data come from patent US12268687B2, “Compounds and uses thereof” (JANSSEN PHARMACEUTICA NV, priority 2020, dated 2025).
